Key:
Assay type in all cases: in vivo
[1] = test system: barnyardgrass (Echinochloa crus-galli, ECHCG); experiment: Greenhouse herbicide screen, post-emerge application, phytotoxicity rating; details: POST emergent, 14 days after application, scale 0-100
Summary of the method: (§1)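 Scoring at 14 days used a 0–100 scale, 100 being all plants dead, for weed control and crop injury alike. Rates ranged from 15 to 1000 g ai/ha, applied in acetone at 187 l/ha by track sprayer. Post-emerge treatment hit 2–3 leaf plants; pre-emerge treatment hit soil seeded one day earlier.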

[2] = test system: cocklebur (Xanthium strumarium, XANST); experiment: as above; details: POST emergent, 14 days after application, scale 0-100
Summary of the method: as §1

[3] = test system: common ragweed (Ambrosia artemisiifolia L., AMBEL); experiment: as above; details: POST emergent, 14 days after application, scale 0-100
Summary of the method: as §1

[4] = test system: green foxtail (Setaria viridis, SETVI); experiment: as above; details: POST emergent, 14 days after application, scale 0-100
Summary of the method: as §1

[5] = test system: ivyleaf morningglory (Ipomoea hederacea, IPOHE); experiment: as above; details: POST emergent, 14 days after application, scale 0-100
Summary of the method: as §1

[6] = test system: johnsongrass (Sorghum halepense, SORHA); experiment: as above; details: POST emergent, 14 days after application, scale 0-100
Summary of the method: as §1

[7] = test system: lambsquarters (Chenopodium album, CHEAL); experiment: as above; details: POST emergent, 14 days after application, scale 0-100
Summary of the method: as §1

[8] = test system: large crabgrass (Digitaria sanguinalis, DIGSA); experiment: as above; details: POST emergent, 14 days after application, scale 0-100
Summary of the method: as §1

[9] = test system: redroot pigweed (Amaranthus retrofiexus, AMARE); experiment: as above; details: POST emergent, 14 days after application
Summary of the method: as §1

[10] = test system: sicklepod (Cassia obtusifolia, CASOB); experiment: as above; details: POST emergent, 14 days after application, scale 0-100
Summary of the method: as §1

[11] = test system: velvetleaf (Abutilon theophrasti, ABUTH); experiment: as above; details: POST emergent, 14 days after application, scale 0-100
Summary of the method: as §1

[12] = test system: field corn (Zea mays L., var. Dekalb 535, CORN); experiment: Greenhouse herbicide screen, post-emerge application, crop damage rating; details: POST emergent, 14 days after application, scale 0-100
Summary of the method: as §1

[13] = test system: upland rice (Oryza sp., var.Cocodrie, RICE); experiment: as above; details: POST emergent, 14 days after application, scale 0-100
Summary of the method: as §1

[14] = test system: barnyardgrass (Echinochloa crus-galli, ECHCG); experiment: Greenhouse herbicide screen, pre-emerge application, phytotoxicity rating; details: PRE emergent, 14 days after application, rating scale 0-100
Summary of the method: as §1

[15] = test system: cocklebur (Xanthium strumarium, XANST); experiment: as above; details: PRE emergent, 14 days after application, rating scale 0-100
Summary of the method: as §1

[16] = test system: common ragweed (Ambrosia artemisiifolia L., AMBEL); experiment: as above; details: PRE emergent, 14 days after application, rating scale 0-100
Summary of the method: as §1

[17] = test system: green foxtail (Setaria viridis, SETVI); experiment: as above; details: PRE emergent, 14 days after application, rating scale 0-100
Summary of the method: as §1

[18] = test system: ivyleaf morningglory (Ipomoea hederacea, IPOHE); experiment: as above; details: PRE emergent, 14 days after application, rating scale 0-100
Summary of the method: as §1

[19] = test system: johnsongrass (Sorghum halepense, SORHA); experiment: as above; details: PRE emergent, 14 days after application, rating scale 0-100
Summary of the method: as §1

[20] = test system: lambsquarters (Chenopodium album, CHEAL); experiment: as above; details: PRE emergent, 14 days after application, rating scale 0-100
Summary of the method: as §1

[21] = test system: large crabgrass (Digitaria sanguinalis, DIGSA); experiment: as above; details: PRE emergent, 14 days after application, rating scale 0-100
Summary of the method: as §1

[22] = test system: redroot pigweed (Amaranthus retrofiexus, AMARE); experiment: as above; details: PRE emergent, 14 days after application, rating scale 0-100
Summary of the method: as §1

[23] = test system: sicklepod (Cassia obtusifolia, CASOB); experiment: as above; details: PRE emergent, 14 days after application, rating scale 0-100
Summary of the method: as §1

[24] = test system: velvetleaf (Abutilon theophrasti, ABUTH); experiment: as above; details: PRE emergent, 14 days after application, rating scale 0-100
Summary of the method: as §1

[25] = test system: field corn (Zea mays L., var. Dekalb 535, CORN); experiment: Greenhouse herbicide screen, pre-emerge application, crop damage rating; details: PRE emergent, 14 days after application, rating scale 0-100
Summary of the method: as §1

[26] = test system: upland rice (Oryza sp., var.Cocodrie, RICE); experiment: as above; details: PRE emergent, 14 days after application, rating scale 0-100
Summary of the method: as §1

[27] = 63 g ai/ha, scale 0-100 (0 no damage, 100 complete death)

CC(=O)OC(=NN(C)C)c1cc(-n2c(=O)cc(C(F)(F)F)n(C)c2=O)ccc1Cl [Compound 4-4]
phytotoxicity rating ECHCO ([1]; 63 g ai/ha): 30 | phytotoxicity rating ECHCO ([1]; 250 g ai/ha): 90 | phytotoxicity rating XANST ([2]; 63 g ai/ha): 0 | phytotoxicity rating XANST ([2]; 250 g ai/ha): 60 | phytotoxicity rating AMBEL ([3]; 63 g ai/ha): 75 | phytotoxicity rating AMBEL ([3]; 250 g ai/ha): 100 | phytotoxicity rating SETVI ([4]; 63 g ai/ha): 50 | phytotoxicity rating SETVI ([4]; 250 g ai/ha): 90 | phytotoxicity rating IPOHE ([5]; 63 g ai/ha): 100 | phytotoxicity rating IPOHE ([5]; 250 g ai/ha): 100 | phytotoxicity rating SORHA ([6]; 63 g ai/ha): 60 | phytotoxicity rating SORHA ([6]; 250 g ai/ha): 90 | phytotoxicity rating CHEAL ([7]; 63 g ai/ha): 100 | phytotoxicity rating CHEAL ([7]; 250 g ai/ha): 100 | phytotoxicity rating DIGSA ([8]; 63 g ai/ha): 98 | phytotoxicity rating DIGSA ([8]; 250 g ai/ha): 100 | phytotoxicity rating AMARE [9, 27]: 100 | phytotoxicity rating AMARE ([9]; 250 g ai/ha, scale 0-100): 100 | phytotoxicity rating CASOB ([10]; 63 g ai/ha): 65 | phytotoxicity rating CASOB ([10]; 250 g ai/ha): 98 | phytotoxicity rating ABUTH ([11]; 63 g ai/ha): 100 | phytotoxicity rating ABUTH ([11]; 250 g ai/ha): 100 | crop damage rating CORN ([12]; 63 g ai/ha): 25 | crop damage rating CORN ([12]; 250 g ai/ha): 90 | crop damage rating RICE ([13]; 63 g ai/ha): 10 | crop damage rating RICE ([13]; 250 g ai/ha): 55 | phytotoxicity rating ECHCG ([14]; 63 g ai/ha): 30 | phytotoxicity rating ECHCG ([14]; 250 g ai/ha): 90 | phytotoxicity rating XANST ([15]; 63 g ai/ha): 0 | phytotoxicity rating XANST ([15]; 250 g ai/ha): 60 | phytotoxicity rating AMBEL ([16]; 63 g ai/ha): 75 | phytotoxicity rating AMBEL ([16]; 250 g ai/ha): 100 | phytotoxicity rating SETVI ([17]; 63 g ai/ha): 50 | phytotoxicity rating SETVI ([17]; 250 g ai/ha): 90 | phytotoxicity rating IPOHE ([18]; 63 g ai/ha): 100 | phytotoxicity rating IPOHE ([18]; 250 g ai/ha): 100 | phytotoxicity rating SORHA ([19]; 63 g ai/ha): 60 | phytotoxicity rating SORHA ([19]; 250 g ai/ha): 90 | phytotoxicity rating CHEAL ([20]; 63 g ai/ha): 100 | phytotoxicity rating CHEAL ([20]; 250 g ai/ha): 100 | phytotoxicity rating DIGSA ([21]; 63 g ai/ha): 98 | phytotoxicity rating DIGSA ([21]; 250 g ai/ha): 100 | phytotoxicity rating AMARE ([22]; 63 g ai/ha): 100 | phytotoxicity rating AMARE ([22]; 250 g ai/ha): 100 | phytotoxicity rating CASOB ([23]; 63 g ai/ha): 65 | phytotoxicity rating CASOB ([23]; 250 g ai/ha): 98 | phytotoxicity rating ABUTH ([24]; 63 g ai/ha): 100 | phytotoxicity rating ABUTH ([24]; 250 g ai/ha): 100 | crop damage rating CORN ([25]; 63 g ai/ha): 25 | crop damage rating CORN ([25]; 250 g ai/ha): 90 | crop damage rating RICE ([26]; 63 g ai/ha): 10 | crop damage rating RICE ([26]; 250 g ai/ha): 55

CC1CCCC(C)N1N=C(OC(=O)C(Cl)Cl)c1cc(-n2c(=O)cc(C(F)(F)F)n(C)c2=O)c(F)cc1Cl (centres unmarked) [Compound 4-8]
phytotoxicity rating ECHCO ([1]; 63 g ai/ha): 70 | phytotoxicity rating ECHCO ([1]; 250 g ai/ha): 90 | phytotoxicity rating XANST ([2]; 63 g ai/ha): 100 | phytotoxicity rating XANST ([2]; 250 g ai/ha): 100 | phytotoxicity rating AMBEL ([3]; 63 g ai/ha): 80 | phytotoxicity rating AMBEL ([3]; 250 g ai/ha): 100 | phytotoxicity rating SETVI ([4]; 63 g ai/ha): 15 | phytotoxicity rating SETVI ([4]; 250 g ai/ha): 60 | phytotoxicity rating IPOHE ([5]; 63 g ai/ha): 100 | phytotoxicity rating IPOHE ([5]; 250 g ai/ha): 100 | phytotoxicity rating SORHA ([6]; 63 g ai/ha): 10 | phytotoxicity rating SORHA ([6]; 250 g ai/ha): 65 | phytotoxicity rating CHEAL ([7]; 63 g ai/ha): 100 | phytotoxicity rating CHEAL ([7]; 250 g ai/ha): 100 | phytotoxicity rating DIGSA ([8]; 63 g ai/ha): 0 | phytotoxicity rating DIGSA ([8]; 250 g ai/ha): 75 | phytotoxicity rating AMARE [9, 27]: 100 | phytotoxicity rating AMARE ([9]; 250 g ai/ha, scale 0-100): 100 | phytotoxicity rating CASOB ([10]; 63 g ai/ha): 70 | phytotoxicity rating CASOB ([10]; 250 g ai/ha): 75 | phytotoxicity rating ABUTH ([11]; 63 g ai/ha): 100 | phytotoxicity rating ABUTH ([11]; 250 g ai/ha): 100 | crop damage rating CORN ([12]; 63 g ai/ha): 90 | crop damage rating CORN ([12]; 250 g ai/ha): 100 | crop damage rating RICE ([13]; 63 g ai/ha): 0 | crop damage rating RICE ([13]; 250 g ai/ha): 15 | phytotoxicity rating ECHCG ([14]; 63 g ai/ha): 0 | phytotoxicity rating ECHCG ([14]; 250 g ai/ha): 15 | phytotoxicity rating XANST ([15]; 63 g ai/ha): 30 | phytotoxicity rating XANST ([15]; 250 g ai/ha): 60 | phytotoxicity rating AMBEL ([16]; 63 g ai/ha): 60 | phytotoxicity rating AMBEL ([16]; 250 g ai/ha): 99 | phytotoxicity rating SETVI ([17]; 63 g ai/ha): 65 | phytotoxicity rating SETVI ([17]; 250 g ai/ha): 100 | phytotoxicity rating IPOHE ([18]; 63 g ai/ha): 95 | phytotoxicity rating IPOHE ([18]; 250 g ai/ha): 100 | phytotoxicity rating SORHA ([19]; 63 g ai/ha): 0 | phytotoxicity rating SORHA ([19]; 250 g ai/ha): 80 | phytotoxicity rating CHEAL ([20]; 63 g ai/ha): 100 | phytotoxicity rating CHEAL ([20]; 250 g ai/ha): 100 | phytotoxicity rating DIGSA ([21]; 63 g ai/ha): 50 | phytotoxicity rating DIGSA ([21]; 250 g ai/ha): 99 | phytotoxicity rating AMARE ([22]; 63 g ai/ha): 100 | phytotoxicity rating AMARE ([22]; 250 g ai/ha): 100 | phytotoxicity rating CASOB ([23]; 63 g ai/ha): 60 | phytotoxicity rating CASOB ([23]; 250 g ai/ha): 90 | phytotoxicity rating ABUTH ([24]; 63 g ai/ha): 100 | phytotoxicity rating ABUTH ([24]; 250 g ai/ha): 100 | crop damage rating CORN ([25]; 63 g ai/ha): 0 | crop damage rating CORN ([25]; 250 g ai/ha): 50 | crop damage rating RICE ([26]; 63 g ai/ha): 0 | crop damage rating RICE ([26]; 250 g ai/ha): 0

From US6770597B2, “Benzohydrazide derivatives as herbicides and desiccant compositions containing them” (Ishihara Sangyo Kaisha, Ltd., priority 2002, dated 2004)
